Measured values: paper PMC5487684, “Safety, Pharmacokinetics, and Antiviral Activity of a Novel HIV Antiviral, ABX464, in Treatment-Naive HIV-Infected Subjects in a Phase 2 Randomized, Controlled Study” (Antimicrobial Agents and Chemotherapy, 2017)

Tested on: HIV-infected subjects
Assay: Safety and tolerability (TEAEs, ECG, laboratory) after repeated oral administration, phase 2a study
Assay type: in vivo, human
Settings: for Subjects experiencing at least one TEAE: Flank pain / Subjects experiencing at least one TEAE: Headache / Subjects experiencing at least one TEAE: Injury, poisoning, and procedural complications / Subjects experiencing at least one TEAE: Musculoskeletal and connective tissue disorders / Subjects experiencing at least one TEAE: Nausea / Subjects experiencing at least one TEAE: Neck pain / Subjects experiencing at least one TEAE: Nervous system disorders / Subjects experiencing at least one TEAE: Pain in extremity / Subjects experiencing at least one TEAE: Sciatica, back pain / Subjects experiencing at least one TEAE: Skin abrasion / Subjects experiencing at least one TEAE: Total / Subjects experiencing at least one TEAE: Upper abdominal pain / Subjects experiencing at least one TEAE: Vomiting / Subjects experiencing at least one TEAE: Abdominal pain / Subjects experiencing at least one TEAE: Arthralgia / Subjects experiencing at least one TEAE: Back pain / Subjects experiencing at least one TEAE: Diarrhea / Subjects experiencing at least one TEAE: Gastrointestinal disorders: fed
Description: Participants were assigned to one of eight groups; each group (with one exception) included eight subjects receiving either ABX464 (n = 6) or the corresponding placebo (n = 2) according to a randomization code. […] In the present study with HIV-infected subjects, the first dose administered was 25 mg, given once or 3 times a day over a 2- to 3-week period. This initial dose was therefore considered safe for assessment of the safety and tolerability of ABX464 after repeated oral administrations in subjects infected by HIV and determination of the potential effect on the HIV viral load.
The final dosing protocol for each of the eight groups was as follows: group 1, 25 mg every 3 days for 2 to 3 weeks under fasted conditions; group 2, 25 mg once a day (q.d.) for 2 to 3 weeks under fasted conditions; group 3, 50 mg once a day for 2 to 3 weeks under fasted conditions; group 4, 50 mg 3 times a day (t.i.d.) for 4 weeks under fed conditions; group 5, 75 mg once a day for 2 weeks under fed conditions; group 6, 100 mg once a day for 2 to 3 weeks under fasted conditions; group 7, 150 mg every 3 days for 2 to 3 weeks under fed conditions; and group 8, 150 mg once a day for 2 weeks under fed conditions. Per the study protocol, the treatment period was defined as 2 weeks. […] The decision to proceed to the next highest dose was determined by the data and safety monitoring board after review of the laboratory safety data, vital signs, ECGs, and adverse event reports from the group receiving the current dose after 2 weeks of treatment.
Subjects were hospitalized from the day prior to the first dose to at least the morning of day 2. They were orally dosed with 25-mg capsules of ABX464 with 240 ml water under fed or fasted conditions. According to the group, subjects were dosed with 1, 2, 3, 4, or 6 capsules to deliver 25 mg, 50 mg, 75 mg, 100 mg, or 150 mg product, respectively, or the same number of placebo capsules.
Safety assessments and laboratory tests were carried out according to the schedules described in Table S4 for groups dosed every day, every 3 days, and 3 times a day. Follow-up visits were scheduled for 7 days after the last dose and subsequently once every week in order to assess the elimination of the main ABX464 metabolite and to assess the viral load. Follow-up visits were terminated when the virus load was within 0.5 log of the baseline value or after 3 follow-up visits, whichever came first. Prior to the statistical analyses, AEs were coded using the Medical Dictionary for Regulatory Activities (MedDRA dictionary; last available version) in order to be tabulated by system organ class (SOC) and preferred term (PT). The AEs were analyzed according to the treatment emergence phase from the first study drug administration on day 1 up to 48 h after the last study drug administration. The number and percentage of subjects with at least one TEAE were tabulated by SOC and PT for each group and dose. The number of occurrences of TEAEs was also analyzed in the same way by SOC and PT for each group and dose, by grade of severity for each group and dose, and by level of causality to the study drug for each group and dose.

[1] = Group 7 (n = 6), 150 mg every 3 days, Mild
[2] = Group 7 (n = 6), 150 mg every 3 days, Moderate
[3] = Group 8 (n = 6), 150 mg q.d., Mild
[4] = Group 8 (n = 6), 150 mg q.d., Moderate

FC(F)(F)Oc1ccc(Nc2ccc3cccc(Cl)c3n2)cc1 [ABX464]
Subjects experiencing at least one TEAE: Flank pain [1]: 0 (0.0) No. (%) | Subjects experiencing at least one TEAE: Headache [1]: 4 (66.7) No. (%) | Subjects experiencing at least one TEAE: Injury, poisoning, and procedural complications [1]: 0 (0.0) No. (%) | Subjects experiencing at least one TEAE: Musculoskeletal and connective tissue disorders [1]: 1 (16.7) No. (%) | Subjects experiencing at least one TEAE: Nausea [1]: 4 (66.7) No. (%) | Subjects experiencing at least one TEAE: Neck pain [1]: 0 (0.0) No. (%) | Subjects experiencing at least one TEAE: Nervous system disorders [1]: 4 (66.7) No. (%) | Subjects experiencing at least one TEAE: Pain in extremity [1]: 0 (0.0) No. (%) | Subjects experiencing at least one TEAE: Sciatica, back pain [1]: 0 (0.0) No. (%) | Subjects experiencing at least one TEAE: Skin abrasion [1]: 0 (0.0) No. (%) | Subjects experiencing at least one TEAE: Total [1]: 5 (83.3) No. (%) | Subjects experiencing at least one TEAE: Upper abdominal pain [1]: 0 (0.0) No. (%) | Subjects experiencing at least one TEAE: Vomiting [1]: 1 (16.7) No. (%) | Subjects experiencing at least one TEAE: Abdominal pain [2]: 0 (0.0) No. (%) | Subjects experiencing at least one TEAE: Arthralgia [2]: 0 (0.0) No. (%) | Subjects experiencing at least one TEAE: Back pain [2]: 0 (0.0) No. (%) | Subjects experiencing at least one TEAE: Diarrhea [2]: 0 (0.0) No. (%) | Subjects experiencing at least one TEAE: Flank pain [2]: 0 (0.0) No. (%) | Subjects experiencing at least one TEAE: Gastrointestinal disorders [2]: 3 (50.0) No. (%) | Subjects experiencing at least one TEAE: Headache [2]: 3 (50.0) No. (%) | Subjects experiencing at least one TEAE: Injury, poisoning, and procedural complications [2]: 0 (0.0) No. (%) | Subjects experiencing at least one TEAE: Musculoskeletal and connective tissue disorders [2]: 0 (0.0) No. (%) | Subjects experiencing at least one TEAE: Nausea [2]: 3 (50.0) No. (%) | Subjects experiencing at least one TEAE: Neck pain [2]: 0 (0.0) No. (%) | Subjects experiencing at least one TEAE: Nervous system disorders [2]: 4 (66.7) No. (%) | Subjects experiencing at least one TEAE: Pain in extremity [2]: 0 (0.0) No. (%) | Subjects experiencing at least one TEAE: Sciatica, back pain [2]: 0 (0.0) No. (%) | Subjects experiencing at least one TEAE: Skin abrasion [2]: 0 (0.0) No. (%) | Subjects experiencing at least one TEAE: Total [2]: 4 (66.7) No. (%) | Subjects experiencing at least one TEAE: Upper abdominal pain [2]: 0 (0.0) No. (%) | Subjects experiencing at least one TEAE: Vomiting [2]: 3 (50.0) No. (%) | Subjects experiencing at least one TEAE: Abdominal pain [3]: 1 (16.7) No. (%) | Subjects experiencing at least one TEAE: Arthralgia [3]: 0 (0.0) No. (%) | Subjects experiencing at least one TEAE: Back pain [3]: 0 (0.0) No. (%) | Subjects experiencing at least one TEAE: Diarrhea [3]: 0 (0.0) No. (%) | Subjects experiencing at least one TEAE: Flank pain [3]: 0 (0.0) No. (%) | Subjects experiencing at least one TEAE: Gastrointestinal disorders [3]: 6 (100.0) No. (%) | Subjects experiencing at least one TEAE: Headache [3]: 6 (100.0) No. (%) | Subjects experiencing at least one TEAE: Injury, poisoning, and procedural complications [3]: 0 (0.0) No. (%) | Subjects experiencing at least one TEAE: Musculoskeletal and connective tissue disorders [3]: 1 (16.7) No. (%) | Subjects experiencing at least one TEAE: Nausea [3]: 6 (100.0) No. (%) | Subjects experiencing at least one TEAE: Neck pain [3]: 0 (0.0) No. (%) | Subjects experiencing at least one TEAE: Nervous system disorders [3]: 6 (100.0) No. (%) | Subjects experiencing at least one TEAE: Pain in extremity [3]: 1 (16.7) No. (%) | Subjects experiencing at least one TEAE: Sciatica, back pain [3]: 0 (0.0) No. (%) | Subjects experiencing at least one TEAE: Skin abrasion [3]: 0 (0.0) No. (%) | Subjects experiencing at least one TEAE: Total [3]: 6 (100.0) No. (%) | Subjects experiencing at least one TEAE: Upper abdominal pain [3]: 0 (0.0) No. (%) | Subjects experiencing at least one TEAE: Vomiting [3]: 4 (66.7) No. (%) | Subjects experiencing at least one TEAE: Abdominal pain [4]: 0 (0.0) No. (%) | Subjects experiencing at least one TEAE: Arthralgia [4]: 0 (0.0) No. (%) | Subjects experiencing at least one TEAE: Back pain [4]: 0 (0.0) No. (%) | Subjects experiencing at least one TEAE: Diarrhea [4]: 0 (0.0) No. (%) | Subjects experiencing at least one TEAE: Flank pain [4]: 0 (0.0) No. (%) | Subjects experiencing at least one TEAE: Headache [4]: 0 (0.0) No. (%) | Subjects experiencing at least one TEAE: Injury, poisoning, and procedural complications [4]: 1 (16.7) No. (%) | Subjects experiencing at least one TEAE: Musculoskeletal and connective tissue disorders [4]: 0 (0.0) No. (%) | Subjects experiencing at least one TEAE: Nausea [4]: 0 (0.0) No. (%) | Subjects experiencing at least one TEAE: Neck pain [4]: 0 (0.0) No. (%) | Subjects experiencing at least one TEAE: Nervous system disorders [4]: 0 (0.0) No. (%) | Subjects experiencing at least one TEAE: Pain in extremity [4]: 0 (0.0) No. (%) | Subjects experiencing at least one TEAE: Sciatica, back pain [4]: 0 (0.0) No. (%) | Subjects experiencing at least one TEAE: Skin abrasion [4]: 1 (16.7) No. (%) | Subjects experiencing at least one TEAE: Total [4]: 1 (16.7) No. (%) | Subjects experiencing at least one TEAE: Upper abdominal pain [4]: 0 (0.0) No. (%) | Subjects experiencing at least one TEAE: Vomiting [4]: 0 (0.0) No. (%) | Frequency of subjects receiving ABX464 who reported TEAEs (all other groups (4 to 8)): 100% | Subjects with vomiting episodes (group receiving 150 mg ABX464): 66.7% | Changes in laboratory parameters between baseline and posttreatment (in vivo): none of the changes in any laboratory parameter observed between baseline and posttreatment measurements suggested an impact | Electrocardiogram (ECG) parameters (in vivo): no clinically significant abnormalities | Product-related SAEs (in vivo): no product-related SAEs occurred | Subjects reporting upper abdominal pain (overall): 6% | Number of AEs reported (subjects who received the study drug, regardless of the dose or the drug regimen): 158 AEs | Subjects reporting upper abdominal pain (twenty cases, none in placebo): 4 subjects | Overall safety and tolerability (up to 150 mg once a day, HIV-infected subjects): safe and well tolerated
